Laboratory results taken from ChEMBL document CHEMBL1671705, “Investigations into the role of the Plasmodium falciparum SERCA (PfATP6) L263E mutation in artemisinin action and resistance” (Antimicrob Agents Chemother, 2010).

Experiments:
Format in all cases: functional, organism-based
[1] = tested on: Plasmodium falciparum; test: Antimalarial activity against Plasmodium falciparum 7G8 harboring pfATP6 L263 mutant assessed as inhibition of [3H]hypoxanthine incorporation
[2] = tested on: Plasmodium falciparum; test: Antimalarial activity against Plasmodium falciparum 7G8 harboring pfATP6 263E mutant assessed as inhibition of [3H]hypoxanthine incorporation
[3] = tested on: Plasmodium falciparum; test: Antimalarial activity against Plasmodium falciparum D10 harboring pfATP6 L263 mutant assessed as inhibition of [3H]hypoxanthine incorporation
[4] = tested on: Plasmodium falciparum; test: Antimalarial activity against Plasmodium falciparum D10 harboring pfATP6 263E mutant assessed as inhibition of [3H]hypoxanthine incorporation
[5] = tested on: Plasmodium falciparum; test: Antimalarial activity against Plasmodium falciparum 7G8 clone 1 harboring pfATP6 L263 mutant assessed as inhibition of [3H]hypoxanthine incorporation
[6] = tested on: Plasmodium falciparum; test: Antimalarial activity against Plasmodium falciparum 7G8 clone 1 assessed as inhibition of [3H]hypoxanthine incorporation
[7] = tested on: Plasmodium falciparum; test: Antimalarial activity against Plasmodium falciparum 7G8 clone 2 assessed as inhibition of [3H]hypoxanthine incorporation
[8] = tested on: Plasmodium falciparum; test: Antimalarial activity against Plasmodium falciparum 7G8 clone M1 harboring pfATP6 L263 mutant assessed as inhibition of [3H]hypoxanthine incorporation
[9] = tested on: Plasmodium falciparum; test: Antimalarial activity against Plasmodium falciparum 7G8 clone M1 assessed as inhibition of [3H]hypoxanthine incorporation
[10] = tested on: Plasmodium falciparum; test: Antimalarial activity against Plasmodium falciparum 7G8 clone M2 assessed as inhibition of [3H]hypoxanthine incorporation
[11] = tested on: Plasmodium falciparum; test: Antimalarial activity against Plasmodium falciparum 7G8 clone M3 assessed as inhibition of [3H]hypoxanthine incorporation
[12] = tested on: Plasmodium falciparum; test: Antimalarial activity against Plasmodium falciparum 7G8 clone M4 assessed as inhibition of [3H]hypoxanthine incorporation
[13] = tested on: Plasmodium falciparum; test: Antimalarial activity against Plasmodium falciparum D10 clone 1 harboring pfATP6 L263 mutant assessed as inhibition of [3H]hypoxanthine incorporation
[14] = tested on: Plasmodium falciparum; test: Antimalarial activity against Plasmodium falciparum D10 clone 1 assessed as inhibition of [3H]hypoxanthine incorporation
[15] = tested on: Plasmodium falciparum; test: Antimalarial activity against Plasmodium falciparum D10 clone 2 assessed as inhibition of [3H]hypoxanthine incorporation
[16] = tested on: Plasmodium falciparum; test: Antimalarial activity against Plasmodium falciparum D10 clone M1 harboring pfATP6 L263 mutant assessed as inhibition of [3H]hypoxanthine incorporation
[17] = tested on: Plasmodium falciparum; test: Antimalarial activity against Plasmodium falciparum D10 clone M1 assessed as inhibition of [3H]hypoxanthine incorporation
[18] = tested on: Plasmodium falciparum; test: Antimalarial activity against Plasmodium falciparum D10 clone M2 assessed as inhibition of [3H]hypoxanthine incorporation
[19] = tested on: Plasmodium falciparum; test: Antimalarial activity against Plasmodium falciparum D10 clone M3 assessed as inhibition of [3H]hypoxanthine incorporation

SMILES	IC50 [1]	IC50 [2]	IC50 [3]	IC50 [4]	IC50 [5]	IC50 [6]	IC50 [7]	IC50 [8]	IC50 [9]	IC50 [10]	IC50 [11]	IC50 [12]	IC50 [13]	IC50 [14]	IC50 [15]	IC50 [16]	IC50 [17]	IC50 [18]	IC50 [19]
C[C@H]1[C@@H](O)O[C@@H]2O[C@@]3(C)CC[C@H]4[C@H](C)CC[C@@H]1[C@@]24OO3 [ARTENIMOL]	0.00226 µM	0.0013 µM	0.00341 µM	0.00396 µM	0.00226 µM	0.00201 µM	0.00276 µM	0.00237 µM	0.00258 µM	0.00219 µM	0.00241 µM	0.00225 µM	0.00341 µM	0.00342 µM	0.00338 µM	0.00396 µM	0.00379 µM	0.00452 µM	0.00356 µM
C[C@H]1[C@H](OC(=O)CCC(=O)O)O[C@@H]2O[C@@]3(C)CC[C@H]4[C@H](C)CC[C@@H]1[C@@]24OO3 [ARTESUNATE]	0.0135 µM	0.0149 µM	0.0236 µM	0.0262 µM	0.0135 µM	0.0142 µM	0.0121 µM	0.0149 µM	0.016 µM	0.0133 µM	0.0124 µM	0.0213 µM	0.0236 µM	0.0266 µM	0.0168 µM	0.0262 µM	0.0265 µM	0.0277 µM	0.0243 µM
C[C@@H]1CC[C@H]2[C@@H](C)C(=O)O[C@@H]3O[C@@]4(C)CC[C@@H]1[C@]32OO4 [ARTEMISININ]	0.0207 µM	0.0223 µM	0.0428 µM	0.0516 µM	0.0207 µM	0.0206 µM	0.0209 µM	0.0223 µM	0.0252 µM	0.0197 µM	0.0205 µM	0.0253 µM	0.0428 µM	0.0476 µM	0.0343 µM	0.0516 µM	0.0623 µM	0.0558 µM	0.0368 µM
